Test results taken from patent US20230159527A1, “COMPOUNDS AS BCL-2 INHIBITORS” (Fochon Pharmaceuticals, Ltd., priority 2020, published 2023).
Like-named read-outs stand apart in the source and are kept apart here.

Assays:
Format in all cases: cell-based
Toledo cells = assay: Cell proliferation assay, Toledo cells (MTS, 72 h); settings: Toledo cells, MTS, read-out: Toledo IC50
Summary of the method: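 IC50 was derived from 490 nm absorbance after a 2 h MTS step. Before that, compounds at 1.5–10000 nM final (nine points) acted on Toledo cells for 72 h at 37 °C, 5% CO2. Cells were seeded at 30000/well in 10% FBS RPMI-1640 and rested 4 h before dosing.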

RS4;11-BCL-2 G101V cells = assay: Cell proliferation assay, engineered RS4;11 cells stably overexpressing BCL-2 G101V (MTS, 168 h); settings: read-out: RS4, 11 BCL2- G101V
Description: (§1) MTS testing kit was purchased from Promega (Madison, Wis., USA). The RPMI-1640, Fetal bovine serum and Penicillin-Streptomycin were purchased from BI (Biological Industries, Beit Haemek, Israel). Puromycin was purchased from Beyotime (shanghai, China). Dimethyl sulfoxide (DMSO) was purchased from Sigma (St. Louis, Mo., USA). RS4;1l-BCL-2 G101V and RS4;11-BCL-2 F104L cells were cultured in RPM11640 supplemented with 1 ug/mL puromycin, 100 U/mL Penicillin-Streptomycin and 10% FBS.
(§2) To investigate whether a compound is able to inhibit the activity of BCL-2 mutation in cells, a mechanism-based assay using engineered cell lines stably overexpressing BCL-2 mutation ([…] and […]) was developed. In this assay, the inhibition of BCL-2 mutation was reflected by the inhibition of cell proliferation of RS4;11-BCL-2 G101V and RS4;11-BCL-2 F104L cells. Cells were plated into 96-well plates at optimized cell density (RS4;11-BCL-2 G101V: 5000 cells/well; RS4;11-BCL-2 F104L: 5000 cells/well). Plates were incubated at 37° C., with 5% CO2 for 4 h. Compounds were serially diluted to the final-concentrations of 10000, 3333.3, 1111.1, 370.4, 123.5, 41.2, 13.7, 4.6 and 1.4 nM and added to the plates. Plates were incubated at 37° C., with 5% CO2 for 168 h. 20 μl MTS was added into each well and the plates were incubated at 37° C., with 5% CO2 exactly for 2 h. The absorbance was measured by a microplate reader at 490 nm. IC50 values were calculated using GraphPad Prism 5.0 software.

RS4;11-BCL-2 F104L cells = assay: Cell proliferation assay, engineered RS4;11 cells stably overexpressing BCL-2 F104L (MTS, 168 h); settings: read-out: RS4, 11 BCL2-F104L
Description: as §1, §2

Compound	IC50 (Toledo cells)	IC50 (RS4;11-BCL-2 G101V cells)	IC50 (RS4;11-BCL-2 F104L cells)	IC50 (Toledo cells; Homo sapiens)	IC50 (RS4;11-BCL-2 G101V cells; Homo sapiens, RS4-11, 168 h)	IC50 (RS4;11-BCL-2 F104L cells; Homo sapiens)
2-((3-fluoro-6-methoxy-1H-pyrrolo [2,3-b]pyridin-5-yl)oxy)-N-(((S)- 3-((1r,4S)-4-hydroxy-4- methylcyclohexyl)- 5-nitro-3,4-dihydro- 2H-benzo[b][1,4]oxazin-7-yl) sulfonyl)-4-(2-((1S,2S or 1R,2R)- 2-(2-isopropylphenyl) cyclopentyl)-2,7-diazaspiro[3.5] nonan-7-yl)benzamide [Example D-102]	1 nM	16 nM	1 nM			
CCOc1nc2[nH]cc(F)c2cc1Oc1cc(N2CCC3(CC2)CN([C@H]2CCC[C@H]2c2ccccc2C(C)C)C3)ccc1C(=O)NS(=O)(=O)c1cnc(NC[C@H]2CC[C@](C)(O)CC2)c([N+](=O)[O-])c1 (relative stereo) [Example A-153, 2-((6-ethoxy-3-fluoro-1H-pyrrolo[2,3-b]pyridin-5-yl)oxy)-N-((6-(((1r,4r)-4-hydroxy-4-methylcyclohexyl)methyl)amino)-5-nitropyridin-3-yl) sulfonyl)-4-(2-((1S,2S or 1R,2R)-2-(2-isopropylphenyl)cyclo-pentyl)-2,7-diazaspiro[3.5]nonan-7-yl) benzamide]				1 nM	25 nM	6 nM
COC(C)COc1nc2[nH]cc(F)c2cc1Oc1cc(N2CCC3(CC2)CN([C@H]2CCC[C@H]2c2ccccc2C(C)C)C3)ccc1C(=O)NS(=O)(=O)c1cnc(NC[C@H]2CC[C@](C)(O)CC2)c([N+](=O)[O-])c1 (single isomer, unassigned) [Example A-155, 2-((3-fluoro-6-(2-methoxypropoxy)-1H-pyrrolo[2,3-b]pyridin-5-yl)oxy)-N-((6-((((1r,4r)-4-hydroxy-4-methyl-cyclohexyl)methyl)amino)-5-nitro-pyridin-3-yl)sulfonyl)-4-(2-((1S,2S or 1R,2R)-2-(2-isopropylphenyl)cyclo-pentyl)-2,7-diazaspiro[3.5]nonan-7-yl) benzamide]					13 nM	1 nM
CC(C)c1ccccc1[C@@H]1CCC[C@@H]1N1CC2(CCN(c3ccc(C(=O)NS(=O)(=O)c4cc5c(c([N+](=O)[O-])c4)N[C@@H]([C@H]4CC[C@](C)(O)CC4)CO5)c(Oc4cc5cc[nH]c5nc4Cl)c3)CC2)C1 (single isomer, unassigned) [Example D-101, 2-((6-chloro-1H-pyrrolo2,3-b]pyridin-5-yl)oxy)-N-(((S)-3-((1r,4S)-4-hydroxy-4-methylcyclohexyl)-5-nitro-3,4-dihydro-2H-benzo[b] [1,4]oxazin-7-yl)sulfonyl)-4-(2-((1S,2S or 1R,2R)-2-(2-isopropylphenyl)cyclopentyl)-2,7-diazaspiro[3.5] nonan-7-yl)benzamide]				1 nM	19 nM	
CC(C)c1ccccc1[C@@H]1CCC[C@@H]1N1CC2(CCN(c3ccc(C(=O)NS(=O)(=O)c4cc5c(c([N+](=O)[O-])c4)N[C@@H]([C@H]4CC[C@](C)(O)CC4)CO5)c(Oc4cc5c(F)c[nH]c5nc4Cl)c3)CC2)C1 (single isomer, unassigned) [Example D-106, 2-((6-chloro-3-fluoro-1H-pyrrolo [2,3-b]pyridin-5-yl)oxy)-N-(((S)-3-((1r,4S)-4-hydroxy-4-methylcyclohexyl)-5-nitro-3,4-dihydro-2H-benzo[b][1,4]oxazin-7-yl)sulfonyl)-4-(2-((1S,2S or 1R,2R)-2-(2-isopropylphenyl)cyclopentyl)-2,7-diazaspiro[3.5]nonan-7-yl)benzamide]				1 nM	14 nM	
CC(C)c1ccccc1[C@@H]1CCCN1C1CC2(CCN(c3ccc(C(=O)NS(=O)(=O)c4cc5c(c([N+](=O)[O-])c4)N[C@@H]([C@H]4CC[C@](C)(O)CC4)CO5)c(Oc4cc5cc[nH]c5nc4OC4CN(C)C4)c3)CC2)C1 (single isomer, unassigned) [Example D-201, N-(((S)-3-((1r,4S)-4-hydroxy-4-methylcyclohexyl)-5-nitro-3,4-dihydro-2H-benzo[b][1,4]oxazin-7-yl)sulfonyl)-4-(2-((R or S)-2-(2-isopropylphenyl)pyrrolidin-1-yl)-7-azaspiro[3.5]nonan-7-yl)-2-((6-((1-methylazetidin-3-yl)oxy)-1H-pyrrolo[2,3-b]pyridin-5-yl)oxy)benzamide]				1 nM	1 nM	
CO[C@@H](C)COc1nc2[nH]ccc2cc1Oc1cc(N2CCC3(CC2)CC(N2CCC[C@H]2c2ccccc2C(C)C)C3)ccc1C(=O)NS(=O)(=O)c1cc2c(c([N+](=O)[O-])c1)N[C@@H]([C@H]1CC[C@](C)(O)CC1)CO2 (single isomer, unassigned) [Example D-202, N-(((S)-3-((1r,4S)-4-hydroxy-4-methylcyclohexyl)-5-nitro-3,4-dihydro-2H-benzo[b][1,4]oxazin-7-yl)sulfonyl)-4-(2-((R or S)-2-(2-isopropylphenyl)pyrrolidin-1-yl)-7-azaspiro[3.5]nonan-7-yl)-2-((6-((S)-2-methoxypropoxy)-1H-pyrrolo[2,3-b]pyridin-5-yl)oxy)benzamide]				1 nM	2 nM	
CC(C)c1ccccc1[C@@H]1CCCN1C1CC2(CCN(c3ccc(C(=O)NS(=O)(=O)c4cc5c(c([N+](=O)[O-])c4)N[C@@H]([C@H]4CC[C@](C)(O)CC4)CO5)c(Oc4cc5cc[nH]c5nc4O[C@H]4CCN(C)C4)c3)CC2)C1 (single isomer, unassigned) [Example D-226, N-(((S)-3-((1r,4S)-4-hydroxy-4-methylcyclohexyl)-5-nitro-3,4-dihydro-2H-benzo[b][1,4]oxazin-7-yl)sulfonyl)-4-(2-((R or S)-2-(2-isopropylphenyl)pyrrolidin-1-yl)-7-azaspiro[3.5]nonan-7-yl)-2-((6-(((5)-1-methylpyrrolidin-3-yl)oxy)-1H-pyrrolo[2,3-b]pyridin-5-yl)oxy)benzamide]				1 nM	13 nM	
COC(C)COc1nc2[nH]cc(F)c2cc1Oc1cc(N2CCC3(CC2)CN([C@H]2CCC[C@H]2c2ccccc2C(C)C)C3)ccc1C(=O)NS(=O)(=O)c1ccc(NC[C@H]2CC[C@](C)(O)CC2)c([N+](=O)[O-])c1 (single isomer, unassigned) [Example D-233, 2-((3-fluoro-6-(2-methoxypropoxy)-1H-pyrrolo[2,3-b]pyridin-5-yl)oxy)-N-((4-(((1r,4r)-4-hydroxy-4-methylcyclohexyl)methyl)amino)-3-nitrophenyl)sulfonyl)-4-(2-((1S,2S or 1R,2R)-2-(2-isopropylphenyl)cyclopentyl)-2,7-diazaspiro[3.5]nonan-7-yl)benzamide]					14 nM	4 nM
COC(C)COc1nc2[nH]cc(F)c2cc1Oc1cc(N2CCC3(CC2)CN([C@H]2CCC[C@H]2c2ccccc2C(C)C)C3)ccc1C(=O)NS(=O)(=O)c1cc2c(c([N+](=O)[O-])c1)N[C@@H]([C@H]1CC[C@](C)(O)CC1)CO2 (single isomer, unassigned) [Example D-241, 2-((3-fluoro-6-(2-methoxypropoxy)-1H-pyrrolo[2,3-b]pyridin-5-yl)oxy)-N-(((S)-3-((1r,4S)-4-hydroxy-4-methylcyclohexyl)-5-nitro-3,4-dihydro-2H-benzo[b][1,4]oxazin-7-yl)sulfonyl)-4-(2-((1S,2S or 1R,2R)-2-(2-isopropylphenyl)cyclopentyl)-2,7-diazaspiro[3.5]nonan-7-yl)benzamide]					4 nM	1 nM
COC(C)COc1nc2[nH]cc(F)c2cc1Oc1cc(N2CCC3(CC2)CC(N2CCC[C@H]2c2ccccc2C(C)C)C3)ccc1C(=O)NS(=O)(=O)c1cc2c(c([N+](=O)[O-])c1)N[C@@H]([C@H]1CC[C@](C)(O)CC1)CO2 (single isomer, unassigned) [Example D-243, 2-((3-fluoro-6-(2-methoxypropoxy)-1H-pyrrolo[2,3-b]pyridin-5-yl)oxy)-N-(((S)-3-((1r,4S)-4-hydroxy-4-methylcyclohexyl)-5-nitro-3,4-dihydro-2H-benzo[b][1,4]oxazin-7-yl)sulfonyl)-4-(2-((R or S)-2-(2-isopropylphenyl)pyrrolidin-1-yl)-7-azaspiro[3.5]nonan-7-yl)benzamide]					10 nM	1 nM
